Experiments:
Format in all cases: biochemical
PI3K γ = PI3K γ (Homo sapiens (Human), UniProt P48736); test: PI 3-Kinase (human) HTRF assay, p110γ; details: read-out: PI3K γ IC50
PI3K δ = PI3K δ (Homo sapiens (Human), UniProt O00329); test: PI 3-Kinase (human) HTRF assay, p110δ/p85α
Procedure: An exemplary system is PI 3-Kinase (human) HTRF™ Assay from Upstate. […] Briefly, the assay is a time resolved FRET assay that indirectly measures PIP3 product formed by the activity of a PI3-K. The kinase reaction is performed in a microtitre plate (e.g., a 384 well microtitre plate). The total reaction volume is approximately 20 ul per well. In the first step, each well receives 2 ul of test compound in 20% dimethylsulphoxide resulting in a 2% DMSO final concentration. Next, approximately 14.5 ul of a kinase/PIP2 mixture (diluted in 1× reaction buffer) is added per well for a final concentration of 0.25-0.3 ug/ml kinase and 10 μM PIP2. The plate is sealed and incubated for 15 minutes at room temperature. To start the reaction, 3.5 ul of ATP (diluted in 1× reaction buffer) is added per well for a final concentration of 10 μM ATP. The plate is sealed and incubated for 1 hour at room temperature. The reaction is stopped by adding 5 ul of Stop Solution per well and then 5 ul of Detection Mix is added per well. The plate is sealed, incubated for 1 hour at room temperature, and then read on an appropriate plate reader. Data is analyzed and IC50s are generated using GraphPad Prism 5. For PI3K α, β, δ, and γ, the nM concentration of inhibitor to reach IC50 is provided.

PI3K α = PI3K α (Homo sapiens (Human), UniProt P42336); test: PI 3-Kinase (human) HTRF assay, p110α/p85α
PI3K β = PI3K β (Homo sapiens (Human), UniProt P42338); test: PI 3-Kinase (human) HTRF assay, p110β/p85α
mTORC = mTORC (Homo sapiens (Human), UniProt P42345); test: mTOR inhibition assay (radiometric or LanthaScreen TR-FRET)
mTORC, sequence (P42345 1360-2549): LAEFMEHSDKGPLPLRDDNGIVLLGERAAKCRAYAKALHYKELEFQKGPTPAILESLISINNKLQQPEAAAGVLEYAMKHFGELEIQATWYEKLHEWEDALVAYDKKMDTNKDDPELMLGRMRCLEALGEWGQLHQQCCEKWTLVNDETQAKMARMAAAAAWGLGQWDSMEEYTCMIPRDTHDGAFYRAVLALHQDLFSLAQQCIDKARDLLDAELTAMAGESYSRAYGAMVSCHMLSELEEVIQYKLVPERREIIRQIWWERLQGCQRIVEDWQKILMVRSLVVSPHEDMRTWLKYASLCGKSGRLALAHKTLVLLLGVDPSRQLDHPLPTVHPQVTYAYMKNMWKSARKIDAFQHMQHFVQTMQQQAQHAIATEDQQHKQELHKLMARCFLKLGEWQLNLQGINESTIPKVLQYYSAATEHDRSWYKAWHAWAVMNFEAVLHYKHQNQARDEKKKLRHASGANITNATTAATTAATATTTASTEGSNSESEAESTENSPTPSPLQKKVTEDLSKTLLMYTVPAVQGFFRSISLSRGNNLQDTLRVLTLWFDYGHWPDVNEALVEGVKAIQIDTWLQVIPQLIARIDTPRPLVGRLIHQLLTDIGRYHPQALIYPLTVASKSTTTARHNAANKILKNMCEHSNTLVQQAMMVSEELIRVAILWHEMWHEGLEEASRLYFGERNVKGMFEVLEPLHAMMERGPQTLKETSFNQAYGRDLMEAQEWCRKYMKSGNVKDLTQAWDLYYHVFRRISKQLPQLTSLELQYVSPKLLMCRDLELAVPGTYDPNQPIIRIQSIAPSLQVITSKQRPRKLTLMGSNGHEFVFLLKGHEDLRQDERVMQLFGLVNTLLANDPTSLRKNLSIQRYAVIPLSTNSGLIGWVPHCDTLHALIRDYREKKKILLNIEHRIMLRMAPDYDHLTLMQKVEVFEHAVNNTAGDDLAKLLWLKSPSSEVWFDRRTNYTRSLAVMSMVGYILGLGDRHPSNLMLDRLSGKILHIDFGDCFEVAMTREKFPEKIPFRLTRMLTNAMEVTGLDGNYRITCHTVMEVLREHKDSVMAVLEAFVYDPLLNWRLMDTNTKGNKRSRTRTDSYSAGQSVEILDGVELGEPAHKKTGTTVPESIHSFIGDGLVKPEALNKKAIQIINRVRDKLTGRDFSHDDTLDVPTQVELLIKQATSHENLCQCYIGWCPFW

PI3K β, sequence (P42338 whole entry): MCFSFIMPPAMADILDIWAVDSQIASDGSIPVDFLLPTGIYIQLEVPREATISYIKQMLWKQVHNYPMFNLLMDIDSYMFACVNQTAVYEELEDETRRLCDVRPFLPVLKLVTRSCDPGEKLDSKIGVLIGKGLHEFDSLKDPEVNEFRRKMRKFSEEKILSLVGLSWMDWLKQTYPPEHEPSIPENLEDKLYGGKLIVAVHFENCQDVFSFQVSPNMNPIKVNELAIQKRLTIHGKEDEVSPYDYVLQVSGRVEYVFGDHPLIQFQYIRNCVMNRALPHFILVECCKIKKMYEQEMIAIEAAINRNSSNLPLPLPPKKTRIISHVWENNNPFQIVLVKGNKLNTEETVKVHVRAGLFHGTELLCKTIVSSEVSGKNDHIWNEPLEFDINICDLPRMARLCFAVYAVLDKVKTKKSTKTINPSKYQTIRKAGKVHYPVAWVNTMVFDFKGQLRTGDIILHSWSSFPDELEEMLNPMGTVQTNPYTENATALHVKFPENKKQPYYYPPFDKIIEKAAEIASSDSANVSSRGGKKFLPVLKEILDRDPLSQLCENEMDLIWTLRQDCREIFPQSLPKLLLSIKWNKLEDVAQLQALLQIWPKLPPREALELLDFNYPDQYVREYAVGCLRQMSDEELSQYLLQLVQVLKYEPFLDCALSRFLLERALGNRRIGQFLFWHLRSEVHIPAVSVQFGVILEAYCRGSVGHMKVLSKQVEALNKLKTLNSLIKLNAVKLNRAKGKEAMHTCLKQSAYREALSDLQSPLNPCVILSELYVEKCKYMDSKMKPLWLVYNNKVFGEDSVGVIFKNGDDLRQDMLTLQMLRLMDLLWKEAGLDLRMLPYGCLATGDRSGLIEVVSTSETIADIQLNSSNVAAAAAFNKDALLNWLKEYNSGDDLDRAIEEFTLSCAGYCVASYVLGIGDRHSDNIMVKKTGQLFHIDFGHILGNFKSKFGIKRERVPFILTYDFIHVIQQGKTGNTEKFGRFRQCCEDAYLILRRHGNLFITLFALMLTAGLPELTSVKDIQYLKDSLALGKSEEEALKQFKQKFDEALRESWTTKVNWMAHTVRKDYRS
PI3K β, sequence (P27986 whole entry partner): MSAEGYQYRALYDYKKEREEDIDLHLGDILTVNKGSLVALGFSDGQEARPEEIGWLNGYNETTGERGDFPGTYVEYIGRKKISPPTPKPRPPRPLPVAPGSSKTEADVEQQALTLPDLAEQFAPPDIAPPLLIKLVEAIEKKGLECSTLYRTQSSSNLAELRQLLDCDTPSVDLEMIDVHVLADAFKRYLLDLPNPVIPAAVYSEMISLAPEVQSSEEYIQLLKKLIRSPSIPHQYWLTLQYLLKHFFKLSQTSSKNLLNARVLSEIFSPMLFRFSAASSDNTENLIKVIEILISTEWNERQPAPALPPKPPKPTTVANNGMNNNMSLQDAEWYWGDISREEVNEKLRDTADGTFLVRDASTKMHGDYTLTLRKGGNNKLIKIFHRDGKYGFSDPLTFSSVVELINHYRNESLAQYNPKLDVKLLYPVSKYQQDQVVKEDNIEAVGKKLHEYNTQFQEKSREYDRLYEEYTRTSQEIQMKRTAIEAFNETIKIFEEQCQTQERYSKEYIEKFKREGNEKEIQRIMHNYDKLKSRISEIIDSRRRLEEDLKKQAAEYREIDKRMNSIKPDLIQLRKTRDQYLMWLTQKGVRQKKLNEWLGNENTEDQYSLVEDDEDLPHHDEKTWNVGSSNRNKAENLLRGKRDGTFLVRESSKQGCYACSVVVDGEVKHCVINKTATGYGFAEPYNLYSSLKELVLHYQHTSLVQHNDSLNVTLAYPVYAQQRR
PI3K α, sequence (P42336 whole entry): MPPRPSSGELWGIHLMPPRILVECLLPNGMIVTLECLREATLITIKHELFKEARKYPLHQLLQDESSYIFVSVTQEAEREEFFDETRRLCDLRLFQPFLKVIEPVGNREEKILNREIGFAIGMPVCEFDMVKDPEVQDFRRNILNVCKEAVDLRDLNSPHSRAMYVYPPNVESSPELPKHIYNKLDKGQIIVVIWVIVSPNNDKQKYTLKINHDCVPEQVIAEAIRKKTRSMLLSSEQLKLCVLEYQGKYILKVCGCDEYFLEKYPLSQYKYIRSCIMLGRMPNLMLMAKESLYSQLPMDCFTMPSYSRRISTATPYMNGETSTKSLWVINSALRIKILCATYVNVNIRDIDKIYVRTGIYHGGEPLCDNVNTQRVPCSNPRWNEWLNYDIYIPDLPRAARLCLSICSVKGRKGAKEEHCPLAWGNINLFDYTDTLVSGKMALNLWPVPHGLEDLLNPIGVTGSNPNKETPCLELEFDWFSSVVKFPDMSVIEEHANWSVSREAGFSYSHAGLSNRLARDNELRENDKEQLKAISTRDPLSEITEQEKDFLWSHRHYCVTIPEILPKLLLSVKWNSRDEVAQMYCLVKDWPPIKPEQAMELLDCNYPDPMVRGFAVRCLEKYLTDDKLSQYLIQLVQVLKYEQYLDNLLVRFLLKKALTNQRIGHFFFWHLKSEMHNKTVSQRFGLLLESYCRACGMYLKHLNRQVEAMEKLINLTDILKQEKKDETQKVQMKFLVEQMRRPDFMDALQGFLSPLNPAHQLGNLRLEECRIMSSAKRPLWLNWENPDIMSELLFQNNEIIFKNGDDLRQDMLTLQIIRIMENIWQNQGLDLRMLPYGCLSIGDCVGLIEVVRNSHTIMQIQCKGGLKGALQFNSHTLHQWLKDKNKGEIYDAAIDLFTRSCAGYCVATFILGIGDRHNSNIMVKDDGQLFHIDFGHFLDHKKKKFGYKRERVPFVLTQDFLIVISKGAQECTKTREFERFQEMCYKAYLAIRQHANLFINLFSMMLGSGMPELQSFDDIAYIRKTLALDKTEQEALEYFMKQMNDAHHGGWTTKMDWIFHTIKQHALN
PI3K α, sequence (P27986 whole entry partner): as the sequence (P27986 whole entry partner) above

SMILES: CC1CN(C2CN(c3cnc4ccc(-c5ccc6oc(N)nc6c5)nc4n3)C2)CCO1 (stereo not shown)
- IC50 (PI3K γ): < 10 µM
- IC50 (PI3K δ): > 10 µM
- IC50 (PI3K α): < 1 µM
- IC50 (PI3K β): > 10 µM

SMILES: Nc1nc2cc(-c3ccc4ncc(N5CC(N6CC7CCC(C6)O7)C5)nc4n3)ccc2o1
- IC50 (PI3K γ): < 10 µM
- IC50 (PI3K δ): > 10 µM
- IC50 (PI3K α): < 1 µM
- IC50 (PI3K β): > 10 µM

SMILES: C[C@H]1CN(C2CN(c3cnc4ccc(-c5ccc6oc(N)nc6c5)nc4n3)C2)CCN1C
- IC50 (PI3K γ): > 10 µM
- IC50 (PI3K δ): < 10 µM
- IC50 (PI3K α): < 0.1 µM
- IC50 (PI3K β): > 10 µM

SMILES: CCN(CC)c1cnc2ccc(-c3ccc4oc(N)nc4c3)nc2n1
- IC50 (PI3K γ): < 1 µM
- IC50 (PI3K δ): < 10 µM
- IC50 (PI3K α): < 1 µM
- IC50 (PI3K β): > 10 µM

SMILES: Nc1nc2cc(-c3ccc4ncc(N5CC6CCC(C5)O6)nc4n3)ccc2o1
- IC50 (PI3K γ): < 1 µM
- IC50 (PI3K δ): > 10 µM
- IC50 (PI3K α): < 0.1 µM
- IC50 (PI3K β): > 10 µM

SMILES: Nc1nc2cc(-c3ccc4ncc(N5CCNC(=O)C5)nc4n3)ccc2o1
- IC50 (PI3K γ): < 0.1 µM
- IC50 (PI3K δ): < 10 µM
- IC50 (PI3K α): < 0.1 µM
- IC50 (PI3K β): < 1 µM

SMILES: C[C@H](N)C(=O)N1CCN(c2cnc3ccc(-c4ccc5oc(N)nc5c4)nc3n2)CC1
- IC50 (PI3K γ): < 0.1 µM
- IC50 (PI3K δ): < 0.1 µM
- IC50 (PI3K α): < 0.1 µM
- IC50 (PI3K β): < 0.1 µM

SMILES: C[C@@H](N)C(=O)N1CCN(c2cnc3ccc(-c4ccc5oc(N)nc5c4)nc3n2)CC1
- IC50 (PI3K γ): < 1 µM
- IC50 (PI3K δ): < 10 µM
- IC50 (PI3K α): < 0.1 µM
- IC50 (PI3K β): < 10 µM

SMILES: CC(C)N1CCN(c2cnc3ccc(-c4ccc5oc(N)nc5c4)nc3n2)CC1
- IC50 (PI3K γ): < 1 µM
- IC50 (PI3K δ): < 10 µM
- IC50 (PI3K α): < 0.1 µM
- IC50 (PI3K β): < 1 µM

SMILES: NCC(=O)N1CCN(c2cnc3ccc(-c4ccc5oc(N)nc5c4)nc3n2)CC1
- IC50 (PI3K γ): < 10 µM
- IC50 (PI3K δ): < 10 µM
- IC50 (PI3K α): < 0.1 µM
- IC50 (PI3K β): < 10 µM

SMILES: Nc1nc2cc(-c3ccc4ncc(N5CC(N6CCNCC6)C5)nc4n3)ccc2o1
- IC50 (PI3K γ): > 10 µM
- IC50 (PI3K δ): > 10 µM
- IC50 (PI3K α): < 1 µM
- IC50 (PI3K β): > 10 µM

SMILES: Nc1nc2cc(-c3ccc4ncc(N5CCC(O)CC5)nc4n3)ccc2o1
- IC50 (PI3K γ): < 0.1 µM
- IC50 (PI3K δ): > 10 µM
- IC50 (PI3K α): < 0.1 µM
- IC50 (PI3K β): < 10 µM

SMILES: C[C@@H]1CN(c2cnc3ccc(-c4ccc5oc(N)nc5c4)nc3c2)CCN1
- IC50 (PI3K γ): < 10 µM
- IC50 (mTORC): > 10 µM
- IC50 (PI3K α): < 0.1 µM
- IC50 (PI3K β): < 1 µM

SMILES: Nc1ncnc2ccc(-c3ccc4nccc(-c5ccncc5)c4c3)cc12 [Compound 8]
- IC50 (PI3K γ): < 1 µM
- IC50 (mTORC): > 10 µM
- IC50 (PI3K α): < 10 µM
- IC50 (PI3K β): > 10 µM

SMILES: Nc1ncc2cc(-c3ccc4nccc(-c5ccncc5)c4c3)ccc2n1 [Compound 9]
- IC50 (PI3K γ): < 1 µM
- IC50 (mTORC): > 10 µM
- IC50 (PI3K α): < 1 µM
- IC50 (PI3K β): < 10 µM

SMILES: Nc1nsc2ccc(-c3ccc4nccc(-c5ccncc5)c4c3)cc12 [Compound 12]
- IC50 (PI3K γ): > 10 µM
- IC50 (PI3K δ): > 10 µM
- IC50 (PI3K α): > 10 µM
- IC50 (PI3K β): > 10 µM

SMILES: Nc1nsc2cc(-c3ccc4nccc(-c5ccncc5)c4c3)ccc12 [Compound 13]
- IC50 (PI3K γ): < 1 µM
- IC50 (PI3K δ): < 1 µM
- IC50 (PI3K α): < 0.1 µM
- IC50 (PI3K β): < 1 µM

SMILES: Nc1nc2cc(-c3cc4nccc(-c5ccncc5)c4s3)ccc2o1 [Compound 14]
- IC50 (PI3K γ): < 10 µM
- IC50 (PI3K δ): > 10 µM
- IC50 (PI3K α): < 10 µM
- IC50 (PI3K β): > 10 µM

SMILES: Nc1noc2cc(-c3ccc4nccc(-c5ccncc5)c4c3)ccc12 [Compound 16]
- IC50 (PI3K γ): < 1 µM
- IC50 (PI3K δ): < 10 µM
- IC50 (PI3K α): < 0.1 µM
- IC50 (PI3K β): < 10 µM

SMILES: Nc1noc2ccc(-c3ccc4nccc(-c5ccncc5)c4c3)cc12 [Compound 18]
- IC50 (PI3K γ): < 10 µM
- IC50 (PI3K δ): > 10 µM
- IC50 (PI3K α): < 10 µM
- IC50 (PI3K β): > 10 µM

SMILES: CC(=O)Nc1cn2cc(-c3ccc4nccc(-c5ccncc5)c4c3)ccc2n1 [Compound 19]
- IC50 (PI3K γ): > 10 µM
- IC50 (PI3K δ): > 10 µM
- IC50 (PI3K α): > 10 µM
- IC50 (PI3K β): > 10 µM

SMILES: CN1CCN(c2ccnc3ccc(-c4ccc5oc(N)nc5c4)cc23)CC1 [Compound 21]
- IC50 (PI3K γ): < 10 µM
- IC50 (PI3K δ): < 10 µM
- IC50 (PI3K α): < 1 µM
- IC50 (PI3K β): < 10 µM

SMILES: CN1CCN(c2ncnc3ccc(-c4ccc5oc(N)nc5c4)cc23)CC1 [Compound 23]
- IC50 (PI3K γ): < 0.1 µM
- IC50 (PI3K δ): < 10 µM
- IC50 (PI3K α): < 0.1 µM
- IC50 (PI3K β): < 1 µM

SMILES: Nc1nc2cc(-c3ccc4ncnc(NC5CCOCC5)c4c3)ccc2o1 [Compound 24]
- IC50 (PI3K γ): < 0.1 µM
- IC50 (PI3K δ): < 0.1 µM
- IC50 (PI3K α): < 0.1 µM
- IC50 (PI3K β): < 1 µM

SMILES: Nc1nc2cc(-c3c[nH]c4nccc(-c5ccncc5)c34)ccc2o1 [Compound 25]
- IC50 (PI3K γ): < 10 µM
- IC50 (PI3K δ): > 10 µM
- IC50 (PI3K α): < 10 µM
- IC50 (PI3K β): > 10 µM

SMILES: Nc1nc2cc(-c3ccc4ncn(C5CCOCC5)c4c3)ccc2o1 [Compound 48]
- IC50 (PI3K γ): > 10 µM
- IC50 (PI3K δ): > 10 µM
- IC50 (PI3K α): < 10 µM
- IC50 (PI3K β): > 10 µM

SMILES: Nc1nc2cc(-c3ccc4ncc(-c5ccc(N6CCOCC6)nc5)n4c3)ccc2o1 [Compound 51]
- IC50 (PI3K γ): < 1 µM
- IC50 (PI3K δ): < 1 µM
- IC50 (PI3K α): < 0.1 µM
- IC50 (PI3K β): < 1 µM

SMILES: Nc1nc2cc(-c3ccc4ncc(N5CCOCC5)n4c3)ccc2o1 [Compound 53]
- IC50 (PI3K γ): > 10 µM
- IC50 (PI3K δ): > 10 µM
- IC50 (PI3K α): < 10 µM
- IC50 (PI3K β): > 10 µM

Source: patent US9682141B2, “Combination of kinase inhibitors and uses thereof” (INTELLIKINE LLC, priority 2011, dated 2017)
